From ChEMBL document CHEMBL1909046, “DrugMatrix in vitro pharmacology data”

Experiments:
Caspase-1 = target: T1, Caspase-1 (Homo sapiens, UniProt P29466); parameters: species or system Escherichia coli;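 further: Caspase-1 enzyme inhibition assay with a peptide substrate; in other assays of this panel Not Active means under 50% inhibition at 10 µM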
T1 sequence (P29466 whole entry): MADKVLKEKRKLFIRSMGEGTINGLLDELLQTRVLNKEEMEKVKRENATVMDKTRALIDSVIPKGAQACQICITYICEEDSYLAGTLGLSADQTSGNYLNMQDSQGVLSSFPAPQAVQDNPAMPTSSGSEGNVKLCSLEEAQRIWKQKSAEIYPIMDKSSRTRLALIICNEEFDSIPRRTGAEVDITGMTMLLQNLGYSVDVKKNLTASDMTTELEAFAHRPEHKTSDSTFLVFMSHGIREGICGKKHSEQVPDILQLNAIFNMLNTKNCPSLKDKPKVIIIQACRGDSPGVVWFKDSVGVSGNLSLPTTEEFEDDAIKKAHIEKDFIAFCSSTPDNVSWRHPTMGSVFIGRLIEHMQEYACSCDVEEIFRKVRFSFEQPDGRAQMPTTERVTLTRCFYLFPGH

[1] = target: T2, Alpha-2A adrenergic receptor (Homo sapiens, UniProt P08913); assay type: cell membranes, Sf9, Membrane; conditions: sf9; further: in other assays of this panel Not Active means under 50% inhibition at 10 µM
T2 sequence (P08913 whole entry): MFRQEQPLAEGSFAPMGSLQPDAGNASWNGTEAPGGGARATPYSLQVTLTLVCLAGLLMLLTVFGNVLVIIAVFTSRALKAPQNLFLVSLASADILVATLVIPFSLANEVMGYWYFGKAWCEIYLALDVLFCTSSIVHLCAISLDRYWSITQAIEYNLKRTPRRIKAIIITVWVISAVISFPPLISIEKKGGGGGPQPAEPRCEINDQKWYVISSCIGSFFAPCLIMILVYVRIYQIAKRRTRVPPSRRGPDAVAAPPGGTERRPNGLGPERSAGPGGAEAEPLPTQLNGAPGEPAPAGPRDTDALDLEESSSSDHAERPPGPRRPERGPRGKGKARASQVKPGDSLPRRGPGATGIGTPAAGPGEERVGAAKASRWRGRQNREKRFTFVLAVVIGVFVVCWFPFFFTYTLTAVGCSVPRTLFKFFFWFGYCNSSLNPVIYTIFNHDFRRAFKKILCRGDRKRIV

[2] = DRUGMATRIX: Calcium Channel Type L, Dihydropyridine radioligand binding (ligand: [3H] Nitrendipine); assay type: cell membranes, Rattus norvegicus, Wistar, Cerebral cortex, Membrane; conditions: Not Active = under 50% inhibition at 10 µM
[3] = DRUGMATRIX: Tumor Necrosis Factor (TNF), Non-Selective radioligand binding (ligand: [125I] TNF-alpha); assay type: cell membranes, Membrane; conditions: u-937; Not Active = under 50% inhibition at 10 µM
[4] = target: Beta-3 adrenergic receptor (Homo sapiens, UniProt P13945); experiment: DRUGMATRIX: Adrenergic beta3 radioligand binding (ligand: [125I] Cyanopindolol); assay type: cell membranes, HEK293, Membrane; conditions: hek293; Not Active = under 50% inhibition at 10 µM
Chain of Beta-3 adrenergic receptor (P13945 whole entry): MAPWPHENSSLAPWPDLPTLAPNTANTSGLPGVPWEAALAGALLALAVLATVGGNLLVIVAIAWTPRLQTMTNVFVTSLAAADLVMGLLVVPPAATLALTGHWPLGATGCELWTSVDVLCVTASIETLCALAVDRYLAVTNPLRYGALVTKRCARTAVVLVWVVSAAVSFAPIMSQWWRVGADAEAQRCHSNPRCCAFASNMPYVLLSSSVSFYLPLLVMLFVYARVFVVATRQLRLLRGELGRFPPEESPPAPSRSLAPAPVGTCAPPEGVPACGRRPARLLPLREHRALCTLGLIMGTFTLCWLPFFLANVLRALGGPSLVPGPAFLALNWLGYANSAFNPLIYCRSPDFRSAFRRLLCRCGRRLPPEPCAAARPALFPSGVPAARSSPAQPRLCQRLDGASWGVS

[5] = target: Beta-1 adrenergic receptor (Homo sapiens, UniProt P08588); experiment: DRUGMATRIX: Adrenergic beta1 radioligand binding (ligand: [125I] Cyanopindolol); assay type: cell membranes, CHO-K1, Membrane; conditions: Not Active = under 50% inhibition at 10 µM; for Ki: read-out: Ki
Chain of Beta-1 adrenergic receptor (P08588 whole entry): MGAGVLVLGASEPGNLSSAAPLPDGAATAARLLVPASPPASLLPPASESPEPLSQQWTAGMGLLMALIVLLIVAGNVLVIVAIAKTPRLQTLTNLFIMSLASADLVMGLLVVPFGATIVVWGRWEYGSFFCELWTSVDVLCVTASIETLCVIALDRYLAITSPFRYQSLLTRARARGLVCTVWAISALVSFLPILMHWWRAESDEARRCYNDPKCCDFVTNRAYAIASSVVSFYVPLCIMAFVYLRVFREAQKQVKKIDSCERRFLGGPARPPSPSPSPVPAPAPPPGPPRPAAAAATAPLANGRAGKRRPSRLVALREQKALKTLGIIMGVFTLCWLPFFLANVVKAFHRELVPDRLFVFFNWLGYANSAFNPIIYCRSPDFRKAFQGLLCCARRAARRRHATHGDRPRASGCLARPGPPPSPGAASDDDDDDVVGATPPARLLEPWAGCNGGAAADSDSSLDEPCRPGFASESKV

NC(=O)N1c2ccccc2C=Cc2ccccc21 [CARBAMAZEPINE]
IC50 (Caspase-1): Not Active | IC50 [1]: Not Active | IC50 [2]: Not Active | Ki [2]: Not Active | IC50 [3]: Not Active | Ki [3]: Not Active | IC50 [4]: Not Active | IC50 ([5]; cho-k1): Not Active

COc1ccc(Cc2nccc3cc(OC)c(OC)cc23)cc1OC [PAPAVERINE]
IC50 (Caspase-1): Not Active | IC50 [1]: Not Active | IC50 [2]: Not Active | Ki [2]: Not Active | IC50 [3]: Not Active | Ki [3]: Not Active | IC50 [4]: Not Active | IC50 ([5]; cho-k1): Not Active

CNC(=C[N+](=O)[O-])NCCSCc1csc(CN(C)C)n1 [NIZATIDINE]
IC50 (Caspase-1): Not Active | IC50 [1]: Not Active | IC50 [2]: Not Active | Ki [2]: Not Active | IC50 [3]: Not Active | Ki [3]: Not Active | IC50 [4]: Not Active | IC50 ([5]; cho-k1): Not Active

COc1ccccc1OCC(O)CO (centres undefined) [GUAIFENESIN]
IC50 (Caspase-1): Not Active | IC50 [1]: Not Active | IC50 [2]: Not Active | Ki [2]: Not Active | IC50 [3]: Not Active | Ki [3]: Not Active | IC50 [4]: Not Active | IC50 ([5]; cho-k1): Not Active

O=C(c1ccccc1Cl)N1CCC(Cc2ccccc2)CC1
IC50 (Caspase-1): Not Active | IC50 [1]: Not Active | IC50 [2]: Not Active | Ki [2]: Not Active | IC50 [3]: Not Active | Ki [3]: Not Active | IC50 [4]: Not Active | IC50 ([5]; cho-k1): Not Active

Cc1cccc(Nc2cc(Cl)nc(SCC(=O)O)n2)c1C [PIRINIXIC ACID]
IC50 (Caspase-1): Not Active | IC50 [1]: Not Active | IC50 [2]: Not Active | Ki [2]: Not Active | IC50 [3]: Not Active | Ki [3]: Not Active | IC50 [4]: Not Active | IC50 ([5]; cho-k1): Not Active

CC(CCc1ccc(O)cc1)NCCc1ccc(O)c(O)c1 (centres undefined) [DOBUTAMINE]
IC50 (Caspase-1): Not Active | IC50 [1]: Not Active | IC50 [2]: Not Active | Ki [2]: Not Active | IC50 [3]: Not Active | Ki [3]: Not Active | IC50 [4]: Not Active | IC50 ([5]; read-out: IC50): 1.94 µM | Ki [5]: 1.12 µM

CC(C)(Sc1cc(C(C)(C)C)c(O)c(C(C)(C)C)c1)Sc1cc(C(C)(C)C)c(O)c(C(C)(C)C)c1 [PROBUCOL]
IC50 (Caspase-1): Not Active | IC50 [1]: Not Active | IC50 [2]: Not Active | Ki [2]: Not Active | IC50 [3]: Not Active | Ki [3]: Not Active | IC50 [4]: Not Active | IC50 ([5]; cho-k1): Not Active

C/C=C\c1ccc(O)c(OC)c1 [ISOEUGENOL]
IC50 (Caspase-1): Not Active | IC50 [1]: Not Active | IC50 [2]: Not Active | Ki [2]: Not Active | IC50 [3]: Not Active | Ki [3]: Not Active | IC50 [4]: Not Active | IC50 ([5]; cho-k1): Not Active

NC[C@H]1O[C@H](O[C@H]2[C@H](O)[C@@H](O[C@H]3O[C@H](CO)[C@@H](O)[C@H](N)[C@H]3O)[C@H](N)C[C@@H]2N)[C@H](O)[C@@H](O)[C@@H]1O [KANAMYCIN]
IC50 (Caspase-1): Not Active | IC50 [1]: Not Active | IC50 [2]: Not Active | Ki [2]: Not Active | IC50 [3]: Not Active | Ki [3]: Not Active | IC50 [4]: Not Active

N=C(N)N/N=C/c1c(Cl)cccc1Cl [GUANABENZ]
IC50 (Caspase-1): Not Active | IC50 [2]: Not Active | Ki [2]: Not Active | IC50 [3]: Not Active | Ki [3]: Not Active | IC50 [4]: Not Active | IC50 ([5]; cho-k1): Not Active

CC(C)C[C@H]1C(=O)N2CCC[C@H]2[C@]2(O)O[C@](NC(=O)[C@@H]3C=C4c5cccc6[nH]c(Br)c(c56)C[C@H]4N(C)C3)(C(C)C)C(=O)N12 [BROMOCRIPTINE]
IC50 (Caspase-1): Not Active | IC50 [2]: Not Active | Ki [2]: Not Active | IC50 [3]: Not Active | Ki [3]: Not Active | IC50 [4]: Not Active | IC50 ([5]; read-out: IC50): 2.4 µM | Ki [5]: 1.39 µM

Cc1cnc(C(=O)NCCc2ccc(S(=O)(=O)NC(=O)NC3CCCCC3)cc2)cn1 [GLIPIZIDE]
IC50 [1]: Not Active | IC50 [2]: Not Active | Ki [2]: Not Active | IC50 [3]: Not Active | Ki [3]: Not Active | IC50 [4]: Not Active | IC50 ([5]; cho-k1): Not Active

CN1C[C@H](C(=O)N[C@]2(C)O[C@@]3(O)[C@@H]4CCCN4C(=O)[C@H](Cc4ccccc4)N3C2=O)C[C@@H]2c3cccc4[nH]cc(c34)C[C@H]21 [DIHYDROERGOTAMINE]
IC50 (Caspase-1): Not Active | IC50 [2]: Not Active | Ki [2]: Not Active | IC50 [3]: Not Active | Ki [3]: Not Active | IC50 [4]: Not Active | IC50 ([5]; cho-k1): Not Active
